Experimental data from patent US5260335A, “Pharmaceutical preparations for the treatment of inflammatory diseases” (Plantamed Arzneimittel GmbH, priority 1991, dated 1993).

Legend:
[1] = tested on: bronchial obstruction after allergen inhalation; assay: Inhibition of bronchial obstruction after allergen (ovalbumin) inhalation in sensitized guinea pigs; type: in vivo; conditions: for activity in preventing bronchial obstruction after inhalation of an allergen (in words): methyl gallate, gallic acid and quercetin compared
Experimental: Male white guinea pigs were sensitized by means of intraperitoneal and intramuscular injection of ovalbumin according to the well-known methods. […] All the experiments were conducted according to a randomized evaluation record: Groups of 10 to 14 animals were divided into two sub-groups and either treated with the material to be studied or with control solutions. […] Ovalbumin, PAF, histamine and acetylcholine were administered as an aerosol atomized by ultrasound. Spontaneously breathing animals were placed in a dual-chamber body plethysmograph in which the two chambers were separated around the head of the animals by a rubber collar filled with water. Changes in volume in the two chambers were measured by means of pressure transfer systems. The degree of bronchial obstruction was determined by means of the parameter, "compressed air".

[2] = tested on: PAF-induced bronchial obstruction; assay: Inhibition of PAF-induced bronchial reaction (successive inhalation of histamine, PAF and histamine); type: in vivo, guinea pigs
Experimental: All the experiments were conducted according to a randomized evaluation record:
Groups of 10 to 14 animals were divided into two sub-groups and either treated with the material to be studied or with control solutions.
1 hour, 12 hours, 4 or 7 days after the pretreatment, the animals were exposed to various inhalation stimuli. […] Ovalbumin, PAF, histamine and acetylcholine were administered as an aerosol atomized by ultrasound.
Spontaneously breathing animals were placed in a dual-chamber body plethysmograph in which the two chambers were separated around the head of the animals by a rubber collar filled with water. Changes in volume in the two chambers were measured by means of pressure transfer systems. The degree of bronchial obstruction was determined by means of the parameter, "compressed air".
The action of the plant extracts or of the compounds on the PAF-induced reaction was studied by means of the successive inhalation of histamine, PAF and histamine:
One group of animals was divided into two sub-groups and both sub-groups inhaled histamine in a concentration causing a moderate bronchial obstruction. One hour later, one group was given the substances to be studied, the other group was given the solvent alone. Both groups were subjected 12 hours later to a stimulus by means of the successive inhalation of PAF and histamine with 1 μg PAF at first and, 60 minutes later, the same dose of histamine being given as before.

Compound | % inhibition of bronchial obstruction after allergen inhalation, 1st stimulus ([1]; 5 mg/kg) | % inhibition of bronchial obstruction after allergen inhalation, 2nd stimulus ([1]; 5 mg/kg) | inhibition of bronchial reactions to an allergen stimulus ([1]; oral dose of 5 mg/kg) | % inhibition of bronchial obstruction after PAF inhalation ([2]; 5 mg/kg) | inhibition of PAF-induced bronchial reaction ([2]; oral dose of 5 mg/kg) | % inhibition of bronchial obstruction after allergen inhalation, 1st stimulus ([1]; 45 mg/kg) | % inhibition of bronchial obstruction after allergen inhalation, 2nd stimulus ([1]; 45 mg/kg) | activity in preventing bronchial obstruction after inhalation of an allergen (in words) [1] | % inhibition of bronchial obstruction after PAF inhalation ([2]; 45 mg/kg) | activity in PAF-induced bronchial obstruction (in words) ([2]; compared with the mixture of quercetin, gallic acid and protocatechinic acid)
O=C(OC1CC(OC(=O)c2cc(O)c(O)c(O)c2)(C(=O)O)CC(OC(=O)c2cc(O)c(O)c(O)c2)C1OC(=O)c1cc(O)c(O)c(O)c1)c1cc(O)c(O)c(O)c1 (single isomer, unassigned) [tetragalloylquinic acid] | 86 ± 24% | 57 ± 79% | 86±24% | 60 ± 43% | about 60% |  |  |  |  | 
O=C(O)c1cc(O)c(O)c(O)c1 [Gallic acid, gallic acid] |  |  |  |  |  | 37 ± 35% | 40 ± 31% | about the same activity |  | 
COC(=O)c1cc(O)c(O)c(O)c1 [Methyl gallate, methyl gallate] |  |  |  |  |  | 43 ± 34% | 41 ± 24% | about the same activity | 65 ± 24% | somewhat more activity than the mixture
O=c1c(O)c(-c2ccc(O)c(O)c2)oc2cc(O)cc(O)c12 [Quercetin, quercetin, reference compound] |  |  |  |  |  | 53 ± 23% | 34 ± 33% | about the same activity |  | 
